Source: US7919508B2, “3-piperidinylisochroman-5-ols as dopamine agonists” (Aventis Pharmaceuticals Inc., priority 2004, dated 2011)
Structures can show the parent of a compound that is named as a salt.

Legend:
[1] = molecular target: T1, human dopamine D1 receptor (Homo sapiens, UniProt P21728); test: [3H]-SCH-23390 binding to cloned human dopamine D1 receptors (CHO cell membranes); conditions: competitive binding, [3H]-SCH-23390, cloned human D1 in CHO membranes; read-out: D1 affinity Ki
T1 construct: A 1.4 Kb Hind III to Xho I fragment was subcloned into the vector pMMLV; expressed in transfected cells; host or cells: CHO cells, clone CHO-D1M#9 (plasmid pHD1MMLV), membranes

[2] = molecular target: T2, D1 receptor (Homo sapiens, UniProt P21728); test: D1 Activation Adenylyl Cyclase Assay (cAMP FlashPlate, D1 transfected CHO cell line); assay type: cell-based; conditions: agonist activity at the D1 receptor, adenylate cyclase assay, D1 transfected CHO cell line; read-out: D1 EC50
T2 construct: expressed in transfected cells; host or cells: D1 transfected CHO cell line
Procedure: D1 Activation Adenylyl Cyclase Assay
Purpose: To measure D1-agonist activity compounds using an Adenylyl Cyclase Activation Flash Plate Assay from NEN.
Buffers: Activation and Detection buffers are provided from NEN: Catalog # SMP004A.
Maintenance of D1 transfected CHO cell line: • 1. Cells are grown in a 150 cc flask in an incubator at 37° C. with 5% CO2 for 2-3 days (4 maximum) until confluent. • 2. Aspirate off old media (Cells adhere to the plastic flask), wash 2× with sterile PBS. • 3. Add ˜5 mL of Trypsin EDTA (enough to cover bottom of the flask) for 5 min. at RT. • 4. Stop digestion with 15 mL of Media (Ham's F12 plus 10% FBS, 1% P/S, 400 μg/mL G418). • Bang flask on counter to release them from the flask. • 5. Add 2 mL of this to 30 mL of Media in a fresh flask. Return to incubator. Preparation of Cells for Assay: • 1. Loosen the cells with 5 mL Vercine (EDTA)/flask for 10 minutes in incubator. • 2. Add 20 mL of Serum-free media/flask. Transfer to 50-mL Falcon tube. • 3. Spin down cells at 1000 RPM for 5 minutes at 4° C. • 4. Aspirate off old media and resuspend in 5 mL of Serum-free media/plate to be done. • 5. Dilute 10 μL 1/10 in 90 μL Trypan Blue solution and count with a hemocytometer. • Count (live cells only) all four areas and average them. • Count X 10^5 equals cells/mL (including accounting for dilution in Trypan). • 6. Dilute to 50,000 cells/50 μL (1,000,000 cells/mL) in Serum-free media. • 7. Put 50 μL/well in Rows 3-12 of a cAMP FlashPlate. • 8. Put in incubator at 37° C. for 2-4 hours, to allow cells to recover and attach. Adenylyl Cyclase Activation Assay: • 1. Prepare the cAMP standards: • Add 130 μL/well of stimulation buffer to each row of a separate 96-well “standard” plate, 2 columns/plate. • Dilute stock cAMP standard 1/5 with stimulation buffer (final concentration is 1000 pmol/mL). Add 130 μL of this to row A. • Make 1/2 serial dilutions by adding 130 μL from each well to the next (A-G), mixing between each. • Final concentrations are: • A: 500, B: 250, C: 125, D: 62.5, E: 31.25, F: 15.6, G: 7.8, H: 0 pmol/mL. • Place 100 μL from each row from 2 columns of the standard plate into columns 1 and 2 of each “reaction” plate. • 2. Prepare the negative and positive control in the “reaction” plate: • Column 3, rows A-D, add 100 μL stimulation buffer (negative control). • Column 3, rows E-H, add 90 μL of stimulation buffer plus 10 μL of 200 μM APO (positive control, […]). (10 μL 10 mM APO, plus 490 μL stim. buffer=1/50 dilution.) • 3. Prepare the agonist compound dilutions in the “compound” plate: • Add 80 μL of stimulation buffer to row A (One column for each compound), and 90 μL of stimulation buffer to rows B—H. • Add 20 μL of 10 mM of each compound to appropriate row A. • Make 1/10 serial dilutions by adding 10 μL from each well to the next (A-H), mixing between each. • 4. […]. Prepare Detection/Stop buffer by adding 90 μL/plate of cAMP-^125I to 10 mL/plate plus 6 mL (for dead volume) of detection buffer. Steps 6-8 performed with the Multi-Mek. • 6. Add 50 μL to each well of the FlashPlate with CHO cells set up earlier. • 7. Incubate at RT for 8 minutes. • 8. Stop reaction by adding 100 μL of detection/stop buffer to each well. • 9. Cover with plastic film and incubate at RT for 16-24 hours (don't wait more than 24 hours). • 10. Count in a Packard Top-Count. Calculations: • 1. Raw signals generated by cAMP standard wells, without cells, are averaged at each cAMP concentration and converted to % B/Bo by dividing the raw signal at each cAMP concentration by the raw signal with no cAMP added. • 2. These values are used to generate a standard curve by plotting cAMP concentration versus % B/Bo. • 3. Raw data for each compound at each concentration is also converted to % B/B. by the same method. • 4. These values are then converted to pmol cAMP/mL using the standard curve. • 5. These cAMP values are then averaged across the three replicates for each compound concentration. • 6. […]

[3] = molecular target: human dopamine D2Long (D2L) receptors (Homo sapiens, UniProt P14416)
Sequence of human dopamine D2Long (D2L) receptors (P14416 whole entry): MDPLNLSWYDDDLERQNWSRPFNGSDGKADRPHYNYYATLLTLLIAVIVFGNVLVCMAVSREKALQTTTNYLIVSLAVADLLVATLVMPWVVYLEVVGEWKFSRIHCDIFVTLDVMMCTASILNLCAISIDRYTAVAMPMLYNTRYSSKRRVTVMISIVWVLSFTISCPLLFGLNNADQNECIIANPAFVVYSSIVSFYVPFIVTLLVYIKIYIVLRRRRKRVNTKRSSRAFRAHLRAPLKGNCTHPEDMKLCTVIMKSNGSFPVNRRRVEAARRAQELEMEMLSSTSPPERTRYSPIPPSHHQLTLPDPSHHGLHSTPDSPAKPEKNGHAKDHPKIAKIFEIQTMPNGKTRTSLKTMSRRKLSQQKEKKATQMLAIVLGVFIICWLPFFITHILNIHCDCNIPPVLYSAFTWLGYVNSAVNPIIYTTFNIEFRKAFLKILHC
Procedure: [N-Methyl-^3H]Spiroperidol Binding to Cloned Human Dopamine D2Long Receptors
This assay measures the in vitro activity of drugs on cloned human dopamine D2Long (D2L) receptors and predicts the direct dopamine-displacing properties of neuropsychiatric, cardiovascular and renal agents at human dopamine D2 receptors.
Cells were maintained in Ham's F12+10% Fetal Bovine Serum+Penicillin/Streptomycin (100 U/ml/100 μg/ml)+G418 (400 μg/ml) medium and were split using Trypsin-EDTA (1 ml/plate, room temperature for ˜2 min. or until cells have lifted off plates). • 2. […] Plates are incubated at 37° C.+5% CO2 for ˜3 days or until cells were confluent.
Cells are harvested by mechanical scraping, washed using PBS collected in 250 ml Corning polypropylene centrifuge tubes, spun down and resuspended in dH2O (final volume per harvest approximately 60 ml). Protein determination is made according to the method of Lowry (Biorad DC Assay Kit). Following the determination of the protein concentration, the protein is diluted into distilled water with 10% DMSO to the appropriate volume based on expression levels (Bmax). The concentrated protein is aliquoted into 1.5 ml screw top eppendorf tubes and placed into a −80° C. freezer.
Assay Requirement: 1 cryovial per two 96 well plates
0.5M Tris Wash Buffer, pH 7.7 • a) 44.4 g Tris HCl • 26.5 g Tris Base • q.s. to 1 Liter (0.5 M Tris buffer, pH 7.7 at 37° C.) • b) make a 1:10 dilution in distilled H2O (0.05 M. Tris buffer, pH 7.7) • 2. Tris Buffer containing physiological salts • a) Stock buffer • NaCl 7.014 g • KCl 0.372 g • CaCl2 0.222 g • MgCl2 0.204 g • q.s. To 100 ml with 0.5 M. Tris Buffer • b) Dilute 1:10 in distilled H2O • This yields 0.05 M. Tris HCl, pH 7.7, containing NaCl (120 mM), KCl (5 mM), CaCl2 (2 mM) and MgCl2 (1 mM) • Optional: add 0.1% ascorbic acid and check pH (in assays with compounds that may oxidize. • c) 1.0% polyethyleneimine stock in 0.5M Tris (reagent 1.a) • Dilute 1:10 in distilled H2O Binding Assay • 750 μl Tissue • 150 μl [^3H]NMSP • 100 μl vehicle (for total binding) or 30 μM (−)
eticlopride (for nonspecific binding) or appropriate drug concentration.
The 96-Well Packard Unifilters GF/B are incubated for >1 h at 25° C. in 0.1% polyethylenimine. The cold tissue is added last and mixed on a orbital shaker for a few seconds and is then incubated at 37° C. for 30 min in a shaking water bath. The assay is stopped by rapid filtration through Packard Unifilter plates. The filter membranes are then washed with 15 ml of ice-cold 0.05 M Tris buffer. The filters are then dried (˜15 min. under a heat lamp or incubated for 15 min. in a 60° C. oven) and a bottom seal is applied. Then 40 μl of Packard Microscint 20 scintillation cocktail are added and a permanent topseal (Type P) is applied and heat sealed. The plates are placed in a Packard Topcount.
Specific binding is defined as the difference between total binding and the binding in the presence of 3 μM S-(−)-eticlopride. Total binding is approximately 10% of the total added ligand. […] The percent inhibition at each drug concentration is the mean of duplicate determinations.

T1 sequence (P21728 whole entry, the tested form may be a part): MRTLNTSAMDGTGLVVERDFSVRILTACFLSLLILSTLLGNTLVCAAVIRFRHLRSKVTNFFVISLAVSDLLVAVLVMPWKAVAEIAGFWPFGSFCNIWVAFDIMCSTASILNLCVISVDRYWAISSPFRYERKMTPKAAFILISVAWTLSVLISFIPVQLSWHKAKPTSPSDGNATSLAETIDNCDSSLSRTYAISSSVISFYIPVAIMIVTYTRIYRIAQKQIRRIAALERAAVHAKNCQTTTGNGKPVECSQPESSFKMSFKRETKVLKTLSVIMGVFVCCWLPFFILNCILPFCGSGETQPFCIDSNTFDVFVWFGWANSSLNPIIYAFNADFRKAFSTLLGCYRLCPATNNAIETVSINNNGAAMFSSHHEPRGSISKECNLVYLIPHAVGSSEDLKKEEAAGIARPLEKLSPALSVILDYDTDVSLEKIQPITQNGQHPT
T2 sequence (P21728 whole entry): as the sequence (P21728 whole entry, the tested form may be a part) above

| Ki [1] [nM] | EC50 [2] [nM] | Ki [3] [nM] | SMILES |
| --- | --- | --- | --- |
| 42.8 | 62 | 749 | Cc1ccc2c(c1O)C[C@@H](C1CCN(Cc3ccccc3F)CC1)O[C@H]2CN [Example 36, (1R,3S)-1-Aminomethyl-3-[1-(2-fluoro-benzyl)-piperidin-4-yl]-6-methyl-isochroman-5-ol dihydrobromide] |
| 17.9 | 110 | 356 | Cc1ccc2c(c1O)C[C@@H](C1CCN(Cc3cccc(Cl)c3)CC1)O[C@H]2CN [Example 37, (1R,3S)-1-Aminomethyl-3-[1-(3-chloro-benzyl)-piperidin-4-yl]-6-methyl-isochroman-5-ol dihydrobromide] |
| 53 | 10 | ≥ 10000 | Cc1ccc2c(c1O)C[C@@H](C1CCN(CC3CC3)CC1)O[C@H]2CN [Example 38, (1R,3S)-1-Aminomethyl-3-(1-cyclopropylmethyl-piperidin-4-yl)-6-methyl-isochroman-5-ol dihydrochloride] |
| 113 | 750 | ≥ 10000 | Cc1ccc2c(c1O)C[C@@H](C1CCN(Cc3cccc4ccccc34)CC1)O[C@H]2CN [Example 39, (1R,3S)-1-Aminomethyl-6-methyl-3-(1-naphthalen-1-ylmethyl-piperidin-4-yl)-isochroman-5-ol dihydrochloride] |
| 114 | 250 | ≥ 10000 | Cc1ccc2c(c1O)C[C@@H](C1CCN(CCC(C)C)CC1)O[C@H]2CN [Example 41, (1R,3S)-1-Aminomethyl-6-methyl-3-[1-(3-methyl-butyl)-piperidin-4-yl]-isochroman-5-ol dihydrochloride] |
| 86.1 | 110 | ≥ 10000 | Cc1ccc2c(c1O)C[C@@H](C1CCN(CCO)CC1)O[C@H]2CN [Example 43, (1R,3S)-1-Aminomethyl-3-[1-(2-hydroxy-ethyl)-piperidin-4-yl]-6-methyl-isochroman-5-ol dihydrochloride] |
| 96.4 | 110 | ≥ 10000 | Cc1ccc2c(c1O)C[C@@H](C1CCN(Cc3ccc4ccccc4c3)CC1)O[C@H]2CN [Example 45, (1R,3S)-1-Aminomethyl-6-methyl-3-(1-naphthalen-2-ylmethyl-piperidin-4-yl)-isochroman-5-ol dihydrochloride] |
| 49 | 100 | 215 | Cc1ccc2c(c1O)C[C@@H](C1CCN(Cc3ccc(Oc4ccccc4)cc3)CC1)O[C@H]2CN [Example 46, (1R,3S)-1-Aminomethyl-6-methyl-3-[1-(4-phenoxy-benzyl)-piperidin-4-yl]-isochroman-5-ol dihydrochloride] |
| 66.4 | 170 | ≥ 10000 | Cc1ccc2c(c1O)C[C@@H](C1CCN(Cc3cccs3)CC1)O[C@H]2CN [Example 47, (1R,3S)-1-Aminomethyl-6-methyl-3-(1-thiophen-2-ylmethyl-piperidin-4-yl)-isochroman-5-ol dihydrochloride] |
| 37.4 | 26 | ≥ 10000 | Cc1ccc2c(c1O)C[C@@H](C1CCN(Cc3ccc(C(C)C)cc3)CC1)O[C@H]2CN [Example 48, (1R 3S)-1-Aminomethyl-3-[1-(4-isopropyl-benzyl)-piperidin-4-yl]-6-methyl-isochroman-5-ol dihydrochloride] |
| 48.2 | 78 | 310 | Cc1ccc2c(c1O)C[C@@H](C1CCN(Cc3ccc(-c4ccccc4)cc3)CC1)O[C@H]2CN [Example 49, (1R,3S)-1-Aminomethyl-3-(1-biphenyl-4-ylmethyl-piperidin-4-yl)-6-methyl-isochroman-5-ol dihydrochloride] |
| 60.7 | 15 | ≥ 10000 | Cc1ccc2c(c1O)C[C@@H](C1CCN(Cc3cccnc3)CC1)O[C@H]2CN [Example 53, (1R,3S)-1-Aminomethyl-6-methyl-3-(1-pyridin-3-ylmethyl-piperidin-4-yl)-isochroman-5-ol dihydrochloride] |
| 53.6 | 16 | 449 | Cc1ccc2c(c1O)C[C@@H](C1CCN(Cc3ccc4ccccc4n3)CC1)O[C@H]2CN [Example 55, (1R,3S)-1-Aminomethyl-6-methyl-3-(1-quinolin-2-ylmethyl-piperidin-4-yl)-isochroman-5-ol dihydrochloride] |
| 30.5 | 12 | ≥ 10000 | Cc1ccc2c(c1O)C[C@@H](C1CCN(Cc3cnc4ccccc4c3)CC1)O[C@H]2CN [Example 56, (1R,3S)-1-Aminomethyl-6-methyl-3-(1-quinolin-3-ylmethyl-piperidin-4-yl)-isochroman-5-ol dihydrochloride] |
| 59.6 | 12 | ≥ 10000 | Cc1ccc2c(c1O)C[C@@H](C1CCN(Cc3ccnc4ccccc34)CC1)O[C@H]2CN [Example 57, (1R,3S)-1-Aminomethyl-6-methyl-3-(1-quinolin-4-ylmethyl-piperidin-4-yl)-isochroman-5-ol dihydrochloride] |
| 46.2 | 12 | 443 | Cc1ccc2c(c1O)C[C@@H](C1CCN(Cc3ccc(Cl)cc3Cl)CC1)O[C@H]2CN [Example 59, (1R,3S)-1-Aminomethyl-3-[1-(2,4-dichloro-benzyl)-piperidin-4-yl]-6-methyl-isochroman-5-ol dihydrochloride] |
| 11.8 | 160 | 364 | Cc1ccc2c(c1O)C[C@@H](C1CCN(Cc3ccc(Cl)c(Cl)c3)CC1)O[C@H]2CN [Example 60, (1R,3S)-1-Aminomethyl-3-[1-(3,4-dichloro-benzyl)-piperidin-4-yl]-6-methyl-isochroman-5-ol dihydrochloride] |
| 34 | 11 | 288 | Cc1cccc(CN2CCC([C@@H]3Cc4c(ccc(C)c4O)[C@H](CN)O3)CC2)c1 [Example 65, (1R,3S)-1-Aminomethyl-6-methyl-3-[1-(3-methyl-benzyl)-piperidin-4-yl]-isochroman-5-ol dihydrochloride] |
| 63.5 | 15 | 431 | Cc1ccc2c(c1O)C[C@@H](C1CCN(Cc3cccc(C(F)(F)F)c3)CC1)O[C@H]2CN [Example 73, (1R,3S)-1-Aminomethyl-6-methyl-3-[1-(3-trifluoromethyl-benzyl)-piperidin-4-yl]-isochroman-5-ol dihydrochloride] |
| 57 | 6 | 655 | Cc1ccc2c(c1O)C[C@@H](C1CCN(Cc3ccc(C(F)(F)F)cc3)CC1)O[C@H]2CN [Example 74, (1R,3S)-1-Aminomethyl-6-methyl-3-[1-(4-trifluoromethyl-benzyl)-piperidin-4-yl]-isochroman-5-ol dihydrochloride] |
